Reference: US6403347B1, “HIV integrase inhibitors” (Merck & Co., Inc., priority 1999, dated 2002)
Where two headings read alike, the source gives them in different places.

How the values were obtained:
HIV-1 integrase = HIV-1 integrase (Human immunodeficiency virus type 1 group M subtype B, UniProt P12497); experiment: HIV integrase substrate cleavage (trimming of the 3′ end of HIV long terminal repeat terminus)
Method: HIV Integrase Substrate Cleavage
An assay for trimming of the 3′ and of HIV long terminal repeat terminus by HIV-1 integrase was conducted according to LaFemina, R. L. et al., J. Virol 10, 5624 (1991), herein incorporated by reference for these purposes. To assay inhibition of HIV integrase substrate cleavage, the reaction was conducted with inhibitor having various concentrations in the range of 0.75 to 100 μM.

HIV integrase = HIV integrase (Human immunodeficiency virus type 1 group M subtype B, UniProt P12497); experiment: Strand transfer assay for HIV integrase (microtiter assay, ligation of processed donor DNA to nicked host DNA)
Method: Strand Transfer Assay for HIV Integrase
A microtiter assay for ligation of processed donor (HIV) DNA to unspecific, nicked host DNA was conducted according to Hazuda, D. J. et al., Nucl. […] To assay inhibition of such strand transfer by HIV integrase, the reaction was conducted with inhibition having various concentrations in the range of 0.75 to 100 μM.

Row | SMILES | IC50 (HIV-1 integrase) | IC50 (HIV integrase) | IC50 (HIV-1 integrase; inhibition of HIV integrase substrate cleavage, inhibitor concentrations 0.75 to 100 μM) | IC50 (HIV integrase; inhibition of strand transfer by HIV integrase, concentrations 0.75 to 100 μM)
1 | CC1Oc2cc3c(-c4c(O)cc(O)c5c(O)c6c(cc45)OC(C)C(C)C6=O)c(O)cc(O)c3c(O)c2C(=O)C1C (single isomer, unassigned) [Compound A] | 2 µM | 12 µM |  | 
2 | CC(=O)Oc1cc(OC(C)=O)c2c(OC(C)=O)c3c(cc2c1-c1c(OC(C)=O)cc(OC(C)=O)c2c(OC(C)=O)c4c(cc12)OC(C)C(C)C4=O)OC(C)C(C)C3=O (centres unmarked) [E] | 50 µM |  |  | 
3 | CC1Oc2cc3c(-c4c(O)cc(O)c5c(O)c6c(cc45)OC(C)C(C)C6=O)c(O)cc(O)c3c(O)c2OC(=O)C1C (centres unmarked) [Compound C] | 3 µM | 9 µM |  | 
4 | CC1Oc2cc3c(-c4c(O)cc(O)c5c(O)c6c(cc45)OC(C)C(C)C6=O)c(O)cc(O)c3c(O)c2C(=O)C1C (single isomer, unassigned) [Compound B] |  |  | 2 µM | 12 µM
5 | Cc1oc2cc3c(-c4c(O)cc(O)c5c(O)c6c(cc45)OC(C)C(C)C6=O)c(O)cc(O)c3c(O)c2c(=O)c1C (centres unmarked) [Compound D] | 1 µM | 4 µM |  | 
6 | COc1cc(O)c2c(OC)c3c(cc2c1-c1c(OC)cc(OC)c2c(OC)c4c(cc12)OC(C)C(C)C4=O)OC(C)C(C)C3=O (centres unmarked) [Compound F] | 40 µM |  |  | 
7 | COc1cc(OC)c2c(OC)c3c(cc2c1-c1c(OC)cc(OC)c2c(OC)c4c(cc12)OC(C)C(C)C4=O)OC(C)C(C)C3=O (centres unmarked) [Compound G] | 60 µM |  |  | 
